Patent publication US20120177797A1, “TASTE ENHANCING AGENT” (J-OIL MILLS, INC., priority 2009, published 2012)

Tests used:
Type in all cases: in vivo
[1] = Sensory evaluation, intensity of umami in aqueous MSG solution; conditions: 10 ppm added to 0.2% MSG; additive-free = 3.0; 1.0 much weaker to 5.0 much stronger; mean of three individuals, nose clip
Description: (§1) All sensory evaluation of taste was performed by individuals wearing a nose clip. The evaluation was performed by groups of three individuals, and the scores were averaged.
(§2) To a 0.2% aqueous sodium glutamate (MSG) solution (=umami), a 0.8% aqueous salt (NaCl) solution (=saltiness) and a 2% aqueous sucrose solution (=sweetness) were added 10 ppm linear aliphatic aldehydes having 3-12 carbon atoms shown in Table 1, respectively. Sensory evaluation was performed in which intensity of taste sensed when each of the aqueous solutions is introduced into the mouth is defined as “Intensity of umami” for the aqueous MSG solution, “Intensity of saltiness” for the aqueous NaCl solution and “Intensity of sweetness” for the aqueous sucrose solution. The score of aldehyde-free taste intensity was set to 3.0, and taste intensity upon addition of aldehyde was evaluated as follows. The results are shown in Table 1. • 1.0: Much weaker • 2.0: Weaker • 3.0: Similar • 4.0: Stronger • 5.0: Much Stronger
(§3) To a 0.2% aqueous sodium glutamate (MSG) solution (=umami), a 0.8% aqueous salt (NaCl) solution (=saltiness), a 2% aqueous sucrose solution (=sweetness) were added 10 ppm linear aliphatic alcohols having 2-11 carbon atoms, respectively. Sensory evaluation was performed in which intensity of taste sensed when each of the aqueous solutions is introduced into the mouth is defined as “Intensity of umami” for the aqueous MSG solution, “Intensity of saltiness” for the aqueous NaCl solution and “Intensity of sweetness” for the aqueous sucrose solution. The score of alcohol-free taste intensity was set to 3.0, and taste intensity upon addition was evaluated as follows. The results are shown in Table 3. • 1.0: Much weaker • 2.0: Weaker • 3.0: Similar • 4.0: Stronger • 5.0: Much stronger
(§4) To a 0.2% aqueous sodium glutamate (MSG) solution (=umami), a 0.8% aqueous salt (NaCl) solution (=saltiness), a 2% aqueous sucrose solution (=sweetness) were added 1 ppm n-hexanal and 1ppm 1-octene-3-ol each, respectively. Sensory evaluation was performed in which the intensity of taste sensed when each of the aqueous solutions is introduced into the mouth is defined as “Intensity of umami” for the aqueous MSG solution, “Intensity of saltiness” for the aqueous NaCl solution and “Intensity of sweetness” for the aqueous sucrose solution. The score of additive-free taste intensity was set to 3.0, and taste intensity upon addition was evaluated as follows. The results are shown in Table 9. • 1.0: Much weaker • 2.0: Weaker • 3.0: Similar • 4.0: Stronger • 5.0: Much stronger

[2] = Sensory evaluation, intensity of saltiness in aqueous NaCl solution; conditions: 10 ppm added to 0.8% NaCl; additive-free = 3.0; 1.0 much weaker to 5.0 much stronger
Description: as §1, §2, §3, §4

[3] = Sensory evaluation, intensity of sweetness in aqueous sucrose solution; conditions: 10 ppm added to 2% sucrose; additive-free = 3.0; 1.0 much weaker to 5.0 much stronger
Description: as §1, §2, §3, §4

[4] = Sensory evaluation, intensity of umami in diluted soy sauce; conditions: 10 ppm in soy sauce diluted to 2% in water; aldehyde-free = 3.0; scale 1.0-5.0
Description: as §1
(§5) Sensory evaluation was performed for “Intensity of Umani ” and “ Intensity of Saltiness “. The score of aldehyde-free taste intensity was set to 3.0, and taste intensity upon addition was evaluated as follows. The results are shown in Table 7. • 1.0: Much weaker • 2.0: Weaker • 3.0: Similar • 4.0: Stronger • 5.0: Much stronger

[5] = Sensory evaluation, intensity of saltiness in diluted soy sauce; conditions: 10 ppm in soy sauce diluted to 2% in water; aldehyde-free = 3.0; scale 1.0-5.0
Description: as §1, §5

[6] = Sensory evaluation, intensity of sweetness in whipped cream; conditions: 100 ppm in whipped cream; aldehyde-free = 3.0; scale 1.0-5.0
Description: as §1
Sensory evaluation was performed for “Intensity of sweetness”. The score of aldehyde-free taste intensity was set to 3.0, and taste intensity upon addition was evaluated as follows. The results are shown in Table 8. • 1.0: Much weaker • 2.0: Weaker • 3.0: Similar • 4.0: Stronger • 5.0: Much stronger

[7] = Sensory evaluation whether salt usage can be reduced; conditions: nothing added, for comparison, 0.5% NaCl solution = 3.0
Description: as §1
Evaluation was conducted to find whether salt usage can be reduced by the taste enhancing effects. To a 0.5% aqueous NaCl solution was added 10 ppm n-hexanal or 10 ppm 1-octen-3-ol. Taste intensity was determined in the sensory evaluation where the taste intensity of the 0.5% NaCl solution was set to 3.0. For comparison, sensory evaluation was also performed for a 0.8% and 0.6% concentration of aqueous NaCl solution. The sensory evaluation was evaluated as follows. The results are shown in Table 5. • 1.0: Much weaker • 2.0: Weaker • 3.0: Similar • 4.0: Stronger • 5.0: Much stronger

[8] = Sensory evaluation, intensity of umami in aqueous MSG solution; conditions: 10 ppm added to 0.2% MSG; additive-free = 3.0; 1.0 much weaker to 5.0 much stronger; mean of three individuals, nose clip; remark: listed apart in the source
[9] = Sensory evaluation, intensity of saltiness in aqueous NaCl solution; conditions: 10 ppm added to 0.8% NaCl; additive-free = 3.0; 1.0 much weaker to 5.0 much stronger; remark: listed apart in the source
[10] = Sensory evaluation, intensity of sweetness in aqueous sucrose solution; conditions: 10 ppm added to 2% sucrose; additive-free = 3.0; 1.0 much weaker to 5.0 much stronger; remark: listed apart in the source

| Compound | Intensity of umami, Aqueous MSG solution [1] | Intensity of saltiness, Aqueous NaCl solution [2] | Intensity of sweetness, Aqueous sucrose solution [3] | other results |
| --- | --- | --- | --- | --- |
| C=CC(C)O (centres unmarked) [Example 1-buten-3-ol, 1-buten-3-ol] | 3.2 | 3.2 | 3.5 |  |
| CCCCCCCC=O [n-octanal] | 3.8 | 3.8 | 3.5 | Intensity of umami [4]: 3.5; Intensity of saltiness [5]: 3.5; Intensity of sweetness [6]: 3.5 |
| CCCCCCCCCC=O [n-decanal] | 3.5 | 3.5 | 3.5 | Intensity of umami [4]: 3.5; Intensity of saltiness [5]: 3.5; Intensity of sweetness [6]: 3.5 |
| CCCCC=O [n-pentanal] | 4.5 | 4.5 | 4.0 | Intensity of umami [4]: 4.2; Intensity of saltiness [5]: 4.2; Intensity of sweetness [6]: 4.2 |
| C=CC(O)CCCCCCC (centres unmarked) [1-decene-3-ol] | 3.2 | 3.2 | 3.5 |  |
| CCC=O [n-propanal] | 3.5 | 3.5 | 3.5 | Intensity of umami [4]: 3.5; Intensity of saltiness [5]: 3.5; Intensity of sweetness [6]: 3.5 |
| C=CCCCC=CCO [2,7-octadienol] | 3.2 | 3.2 | 3.5 |  |
| C=CC(O)CCC (centres unmarked) [1-hexene-3-ol] | 3.2 | 3.2 | 3.5 |  |
| CCCCCCCCCCCO [Example 1-undecanol, 1-undecanol, reference compound] | 3.0 | 3.0 | 3.0 |  |
| CCCCCC=CC=CC=O [2,4-decadienal] | 3.5 | 3.5 | 3.5 |  |
| CCCCCCCCCCC=O [n-undecanal, reference compound] | 3.0 | 3.0 | 3.0 |  |
| CCCCCCC=O [n-heptanal] | 4.5 | 4.5 | 4.0 | Intensity of umami [4]: 4.0; Intensity of saltiness [5]: 4.0; Intensity of sweetness [6]: 4.0 |
| CCCCCCCCCCO [Example 1-decanol, 1-decanol] | 3.2 | 3.2 | 3.2 |  |
| CCCCCCCCCO [Example 1-nonanol, 1-nonanol] | 3.2 | 3.2 | 3.2 |  |
| [Cl-].[Na+] [NaCl, sodium chloride, reference compound] |  |  |  | Scores in sensory evaluation (taste intensity, saltiness) ([7]; 0.6% aqueous NaCl solution): 3.5; Scores in sensory evaluation (taste intensity, saltiness) ([7]; 0.8% aqueous NaCl solution): 4.0 |
| CCCCCCCO [Example 1-heptanol, 1-heptanol] | 3.2 | 3.2 | 3.2 |  |
| CCCC=CC=O [Example 2-hexenal, 2-hexenal] | 3.8 | 3.8 | 3.8 |  |
| CCCO [propanol, reference compound] |  |  |  | Intensity of umami, Aqueous MSG solution [8]: 3.0; Intensity of saltiness, Aqueous NaCl solution [9]: 3.0; Intensity of sweetness, Aqueous sucrose solution [10]: 3.0 |
| CCCCCO [Example 1-pentanol, 1-pentanol] | 3.2 | 3.2 | 3.2 |  |
| CCO [ethanol, reference compound] | 3.0 | 3.0 | 3.0 |  |
| CCCCCCCCO [Example 1-octanol, 1-octanol] | 3.2 | 3.2 | 3.2 |  |
| CCCC=O [n-butanal] | 3.5 | 3.5 | 3.5 | Intensity of umami [4]: 3.5; Intensity of saltiness [5]: 3.5; Intensity of sweetness [6]: 3.5 |
| CCCCCCCCCCCC=O [n-dodecanal, reference compound] | 3.0 | 3.0 | 3.0 |  |
| CCCCCCO [Example 1-hexanol, 1-hexanol] | 3.2 | 3.2 | 3.2 |  |
| CCCCO [Example 1-butanol, 1-butanol] | 3.2 | 3.2 | 3.2 |  |
